B1: HMGB1: recombinant HIS-tagged HMGB1 available from Sigma; high-mobility group protein B1, SEQ ID No. 1 (protein, listed as Homo sapiens)
chain: MGKGDPKKPRGKMSSYAFFVQTCREEHKKKHPDASVNFSEFSKKCSERWKTMSAKEKGKFEDMAKADKARYEREMKTYIPPKGETKKKFKDPNAPKRPPSAFFLFCSEYRPKIKGEHPGLSIGDVAKKLGEMWNNTAADDKQPYEKKAAKLKEKYEKDIAAYRAKGKPDAAKKGVVKAEKSKKKKEEEEDEEDEEDEEEEEDEEDEDEEEDDDDE
modifications: His tag

Tests used:
HMGB1 = HMGB1 quantitation from keratinocytes (ELISA of supernatant, normalized to total protein); format: cell-based; conditions: for HMGB1 levels relative to the control: result in words
Procedure: Make a 210 mL suspension of keratinocytes at 40,000 cells/mL using suitable media to make a cell suspension. Place 2 mL of the cell suspension into the appropriate number of wells of one or more 12-well plates as needed, using the same velocity and insertion angle for each well as cells are pipetted. Incubate the 12-well plates overnight at 37° C. If the cell plating quality is poor (e.g., cells are not attached to plate or seeding density is uneven), discard and start over. Prepare a dosing media by diluting the test agent to the desired concentration (e.g., from 0.0001% to 10%) in a suitable media (e.g., the same media used to make the cell suspension). […] It is not uncommon for skin care actives to be included in skin care compositions at these levels. Optionally, include sufficient solublizer to provide 0.1% solublizer in the test sample. Add 2 mL of dosing media into each well of a 12-well plate and incubate at 4° C. overnight or until test agent is to be added to the test sample. Place prepared dosing media in the 37° C. incubator for at least 30 minutes, or until pH has equalized. When dosing media is warmed and at proper pH, dose the cells. Incubate the dosed cells at 37° C. for 6 hours. Keratinocytes (or other cells) are plated out in 12 well plates as described above with a seeding density of about […] and incubated overnight at 37° C. with 5% CO2. The keratinocytes are dosed with a dosing medium containing the test agent and the plates returned to the incubator for another 20 hours. The supernatant for each is collected and the HMGB1 level analyzed using ELISA (USCN Life Sciences) in accordance with manufacturer's instructions. The cells are lysed with Glo Lysis Buffer (Promega) and the protein levels determined using BCA kits (Pierce) per manufacturer's instructions. The values of HMGB1 determined by ELISA and normalized to total protein levels from the cells.

[1] = tested on: primary human melanocytes; assay: Melanocyte dendricity and size measurements (Incucyte ZOOM live cell imaging); format: cell-based; conditions: melanocytes contacted with HMGB1, over the span of three days
Description: The ability of a test agent to inhibit dendricity and cell body growth in melanocytes may be determined by contacting a sample of melanocytes with the test agent, measuring the change in dendricity and/or cell body growth and comparing the measured indicator to a control to determine if the test agent is identified as a skin tone agent. In some instances, it is important for the test sample to include a source of HMGB1. For example, an amount of HMGB1 (e.g., recombinant HIS-tagged HMGB1 available from Sigma) may be included in the test sample (e.g., at a final level of 0.1 μg/mL), or the test sample may include another type of cell, which can be stimulated to produce HMGB1. A control may be obtained by measuring the dendricity and/or cell body size of the melanocytes prior to contact with the test agent, measuring the dendricity and/or cell body size of the melanocytes in a control sample and/or from the dendricity and/or cell body size of melanocytes published in scientific literature, if available.
Primary human melanocytes (ATCC) are cultured for 2 passages in T150 flasks. For dendricity experiments, melanocytes are plated into 96 well plates (clear) at a density of about 5000 cells/well. The plates are placed into an Incucyte ZOOM® live cell imaging system (Essen Bioscience, Ann Arbor, Mich.) which resides inside a 37° C., 5% CO2 incubator. […]

| Molecule | HMGB1 levels relative to the control (HMGB1) | HMGB1 (pg)/protein (ug) (HMGB1; test agent 0.001%) [pg/ug protein] | HMGB1 (pg)/protein (ug) (HMGB1; test agent 0.005%) [pg/ug protein] | HMGB1 (pg)/protein (ug) (HMGB1; test agent 0.02%) [pg/ug protein] | cell body size of melanocytes relative to the control [1] | dendricity (dendrite length) of melanocytes relative to the control [1] |
| --- | --- | --- | --- | --- | --- | --- |
| hydroxycinnamic acid [HCA] | significantly reduced | 29 | 6 | 2 |  |  |
| methyl hydroxycinnamic acid [ME-HCA] | significantly reduced | 33 | 28 | 4 |  |  |
| B1 |  |  |  |  | significantly larger | significantly longer |

From patent publication US9964534B2, “Method of making a skin care composition” (The Procter & Gamble Company, priority 2014, dated 2018)
